Laboratory results taken from patent US20160237502A1, “MARKERS FOR LIPID METABOLISM” (priority 2014, published 2016).
“Also recorded” adds a separate entry of the source.

Assays:
SKN-1 = SKN-1 transcriptional activity reporter gst-4p::GFP activation in worms; type: in vivo, C. elegans
alh-6 mutant worms = test: Fat content during fasting measured by Nile Red staining; type: in vivo, C. elegans; details: NAC-treated alh-6 mutant worms
Description: For starvation, synchronized L1 animals were added to nematode growth medium (NGM) plates seeded with indicated bacteria. After 2 days at 20° C., L4 animals were collected, washed with M9 buffer at least three times and then subjected to fasting in M9 liquid with shaking for indicated time before collection for further analysis. Starvation survival assay was performed as previous described (Artyukhin et al., Sci. Rep.; 3, 2777; 2013). […] After 24 h, synchronized L1 animals were resuspended in M9 at a concentration of two worms per microliter. Starvation culture was mixed by constant rocking. Every 2 days, a portion of animals was recovered on normal OP50-seeded NGM plates. Animals that resumed development were considered to be surviving.
Nile Red staining was performed as previously described (Pino, et al., J. Vis. Exp. 73; 2013). Briefly, animals of indicated genotypes were collected, fixed in 40% isopropanol at room temperature for 3 min and stained in 3 μg ml-1 Nile Red working solution in dark for 2 h. Worms were then washed with M9 for at least 30 min, mounted on slides and imaged under the green fluorescent protein channel of microscope Zeiss Axio Imager with Zen software package. Fluorescent density was measured using ImageJ software. Approximately ten animals from each experiment (n) were used to calculate the fluorescent density.

alh-6 mutants = details: NAC treatment, previous study; cited from earlier work

| Molecule | SKN-1 reporter activation (SKN-1; in vivo) | fat mobilization in response to fasting (alh-6 mutant worms) | shortened lifespan of alh-6 mutants (alh-6 mutants) | SKN-1 reporter activation induced by exposure to arsenite (SKN-1; gst-4p::GFP reporter, arsenite as inducer of oxidative stress, NAC treatment) | SKN-1 activation observed in fasted alh-6 mutants (SKN-1; gst-4p::GFP reporter, fasted alh-6 mutants, NAC treatment) |
| --- | --- | --- | --- | --- | --- |
| arsenite | SKN-1 reporter activation induced |  |  |  |  |
| CC(=O)N[C@@H](CS)C(=O)O [NAC, N-acetylcysteine] |  | still exhibited accelerated fat mobilization | completely abrogated the shortened lifespan | blocked the SKN-1 reporter activation; also recorded: inhibits arsenite (AS) induced SKN-1 reporter activation | no effect; also recorded: not activation when alh-6 mutants are fasted |
